Read-outs that look alike come from different tables or passages of the source. A value given as a limit tells only on which side of the number the result lay.

The subject of series [1] is A673 (human Ewing Sarcoma cell line). Put plainly: cells. The settings on record: for IC50: Homo sapiens, read-out: In vitro Activity (IC50) A673. The procedure:
(§1) The experiments were conducted in the absence of cytochrome.
(§2) The cells were seeded in 96-well plates at optimal cell density determined previously and incubated with 100 μL of DMEM or RPMI containing 10% of FBS and 100 U/mL penicillin and 100 μg/mL streptomycin at 37° C., 5% CO2 in moist atmosphere. After 24 h, the cells were treated with 100 μL of the different pre-activated prodrugs at different concentrations:
(§3) Depending on the cell line, 2 to 5 h incubation are needed to obtain the optimum optical density which was measured at 490 nm wavelength using a microplate reader (EL808, Biotek Instrument). Untreated cells were used as control. Each compound concentration was tested in six replicates.

The test system of series [2] is RMS-1 cell line. Put plainly: cells. The settings on record: for IC50: read-out: In vitro Activity (IC50) RMS-1. The procedure:
as §1, §2, §3

The nature of series [3]: Physico-chemical characterisation of nano-assemblies (DLS, Zeta potential, drug loading). The format is physicochemical. The settings on record: nanoprecipitation acetone/water, no surfactant. As to the method: Nano-assemblies (NAs) from prodrugs Geranyloxy-IFO (3b) at a concentration of 2 mg/mL and 5 mg/ml, were prepared in a single step by nanoprecipitation of solution (8 mg/mL in acetone) in milliQ® water (ratio acetone:water 1:4; v:v). Formation of NAs occurred immediately without the use of any surfactant. The organic solvent was then evaporated at room temperature under vacuum using a Rotavapor® and the organic solvent-free colloidal dispersions were stored at 4° C.
The hydrodynamic diameter of the NAs was measured at 20° C. by Dynamic Light scattering using a Nanosizer ZS (Malvern Instrument Ltd, France). An amount of 20 μL of the suspension was diluted in 980 μL of Milli-Q water. The results give the mean hydrodynamic diameter of the dispersed NAs from three independent series of ten measurements. The standard deviation and the polydispersity index were also given.
The Zeta (ξ) potential was also determined by dilution of 20 μL of the suspension in 980 μL of a […] solution using a Nanosizer ZS (Malvern Instrument Ltd, France).

Series [4] deals with human rhabdomyosarcoma (RD cell line) xenografted in nude mice. Put plainly: Anti-tumor effect in vivo, RD xenograft. The conditions noted are these: intravenous. The procedure:
In vivo cytotoxic efficacy was evaluated first on a model of human rhabdomyosarcoma xenografted in nude mice. The model used is RD cell line. The cells were first amplified in culture and counted. Cells were injected subcutaneously in both flanks of each mouse.
The administration was performed by intravenous route at day 0.

Series [5] is described as follows: In vitro release of 4-HO-IFO in mouse plasma. Type of series: in vitro ADME. The conditions noted are these: 37° C., without activation by cytochromes.
The conditions of series [6]: squalenoyl IFO derivatives described in WO2012/076824; cited from earlier work.
For series [7], the system named is A673 (human Ewing Sarcoma cell line). The settings on record: comparison values for squalenoyl derivatives (WO2012/076824); cited from earlier work.
The test system of series [8] is RMS-1 cell line. The conditions noted are these: comparison values for squalenoyl derivatives (WO2012/076824); cited from earlier work.
Where [9] appears, read: A673, 72 h, absence of cytochrome.
Where [10] appears, read: RMS-1, 72 h, absence of cytochrome.

Regarding `CC(C)CCCC(C)CCO` (stereo not drawn) [3,7-dimethyloctanol], the “cytotoxicity, in words” value in series [1] and in series [2] was “The same results were observed” throughout. The IC50 in series [1] (A673, 72 h) is over 200 µM; in series [2] (RMS1, 72 h) it was over 50 µM.

`CC(C)CCCC(C)CCOC1CCOP(=O)(NCCCl)N1CCCl` (stereo not drawn) [13,17-Dimethyloctyloxy-IFO (3c), 13,17-Dimethyloctyloxy-IFO]: the “formation of nanoparticles (self-assembly)” value (shortened to “formation of nanoparticles”) in series [3] is “did not provide any suspension of nanoparticles”. Also, the “cytotoxicity, in words” value in series [1] (setting [9]) and in series [2] (setting [10]) was “did not exhibit significant cytotoxicity” each time. For the same compound, the IC50 in series [1] (A673, 72 h) is over 200 µM; in series [1] (A673, 96 h), 24.5 ± 2.1 µM; in series [2] (RMS1, 72 h), over 50 µM; in series [2] (RMS1, 96 h) it was 11.3 ± 5.8 µM.

For the compound `CC(C)=CCC/C(C)=C/CO` [Geraniol, (trans)-3,7-dimethyl-2,6-octadien-1-ol], the “cytotoxicity, in words” value in series [1] and in series [2] was “The same results were observed” throughout. In addition, the IC50 in series [1] (A673, 72 h) is over 200 µM; in series [2] (RMS1, 72 h), over 50 µM. Moreover, the “tumor volume growth (Vtjx/Vtj0)” value in series [4] (single dose 59 mg/kg, day 0) is reported as “No tumor growth inhibition”.

For the compound `CC(C)=CCC/C(C)=C/COC1CCOP(=O)(NCCCl)N1CCCl` (stereo not drawn) [Geranyloxy-IFO (bulk) (3b), Geranyloxy-IFO], the “formation of nanoparticles” value is on record as “gave satisfactory NAs” in series [3] (listed as Geranyloxy-IFO) and “able to self-organize into nanoparticles” in series [3] (listed as geranyloxy-IFO). The “release of 4-HO-IFO, in words” value in series [5] was “released”. Further, the “cytotoxicity, in words” value in series [1] (setting [9]) and in series [2] (setting [10]) was “significant cytotoxicity” throughout. For the same compound, the IC50 turned out to be 25.3 ± 1.5 µM in series [1] (A673, 72 h) and 9.3 ± 4.2 µM in series [2] (RMS1, 72 h). Further, the “tumor volume growth (Vtjx/Vtj0)” value is given as “showed antitumor activity” in series [4] (single dose 158 mg/kg (equivalent to 100 mg/kg of IFO), day 0, free form, listed as Geranyloxy-IFO) and “prevent the tumor growth” in series [4] (single dose 158 mg/kg (equivalent to 100 mg/kg of IFO), day 0, free form, listed as geranyloxy-IFO).

With `O=P1(NCCCl)OCCCN1CCCl` (stereo not drawn) [IFO, ifosfamide], the “cytotoxicity, in words” value in series [1] and in series [2] was “did not exhibit significant cytotoxicity” throughout. The concentration for half-maximal inhibition (IC50) in series [1] (A673, 72 h) was over 200 µM; in series [2] (RMS1, 72 h), over 50 µM. In series [4] (single dose 300 mg/kg, day 0), the “tumor volume growth (Vtjx/Vtj0)” value is reported as “antitumor activity”.

For the compound `CCCCCO` [Pentanol, pentanol], the “cytotoxicity, in words” value in series [1] and in series [2] was “The same results were observed” each time. Further, the IC50 in series [1] (A673, 72 h) is over 200 µM; in series [2] (RMS1, 72 h), over 500 µM.

With `CCCCCOC1CCOP(=O)(NCCCl)N1CCCl` (stereo not drawn) [Pentyloxy-IFO (3a), Pentyloxy-IFO], the “formation of nanoparticles” value in series [3] is listed as “did not provide any suspension of nanoparticles”. Besides, the IC50 in series [1] (A673, 72 h) came out at 17.7 ± 2.3 µM; in series [2] (RMS1, 72 h), 5.3 ± 1.7 µM.

As for `CC(C)=CCC/C(C)=C/CC/C(C)=C/CC/C=C(\C)CC/C=C(\C)CCCOC1CCOP(=O)(NCCCl)N1CCCl` (stereo not drawn) [SQ-IFO], in series [6], the drug loading is given as 40.4% and the mean diameter is 147 nm. Moreover, the IC50 in series [7] is 22 ± 5 µM. Further, in series [8], the IC50 was 11.4 ± 5 µM.

For the compound `CC(C)=CCC/C(C)=C/CC/C(C)=C/CC/C=C(\C)CC/C=C(\C)CCC(=O)NCCSC1CCOP(=O)(NCCCl)N1CCCl` (stereo not drawn) [SQ-thio-IFO], in series [6], the drug loading was 36.3% and the mean diameter is given as 170 nm. Also, the IC50 in series [7] is 23.2 ± 1.3 µM. Moreover, the 50% inhibitory concentration (IC50) in series [8] is 33 ± 1.8 µM.

In general, IC50 refers to the point on the concentration scale where inhibition reaches its midpoint.
